Laboratory results: ChEMBL document CHEMBL1201862, “PubChem BioAssay data set” (2004)
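Assay format: 96-well plates, 48-hour exposure. GI50 = concentration required for 50% inhibition of growth.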 Activity calls are given as the source filed them. No stated cut-off is given here; in the data, active = GI50 up to about 1.1 µM and inactive = higher.

Key:
Test in all cases: inhibition of tumour cell growth, NCI panel, 48 h
SK-OV-3 = test system: SK-OV-3
KM12 = test system: KM12
RXF 393 = test system: RXF 393
HCT-116 = test system: HCT-116
SR = test system: SR
UACC-257 = test system: UACC-257
DU-145 = test system: DU-145
HCT-15 = test system: HCT-15
ACHN = test system: ACHN
NCI-H226 = test system: NCI-H226
MCF7 = test system: MCF7
U-251 = test system: U-251
HT-29 = test system: HT-29
RPMI-8226 = test system: RPMI-8226
MOLT-4 = test system: MOLT-4
OVCAR-8 = test system: OVCAR-8
TK-10 = test system: TK-10
SF-539 = test system: SF-539
NCI-H522 = test system: NCI-H522

SMILES	GI50 (SK-OV-3)	GI50 (KM12)	GI50 (RXF 393)	GI50 (HCT-116)	GI50 (SR)	GI50 (UACC-257)	GI50 (DU-145)	GI50 (HCT-15) [µM]	GI50 (ACHN)	GI50 (NCI-H226)	GI50 (MCF7)	GI50 (U-251)	GI50 (HT-29)	GI50 (RPMI-8226)	GI50 (MOLT-4)	GI50 (OVCAR-8)	GI50 (TK-10)	GI50 (SF-539)	GI50 (NCI-H522)
CC1(C)OC(=S)N(c2ccccc2)C12C=Cc1cc3ccccc3cc1O2 (stereo unspecified)	> 100 µM (inactive)	> 100 µM (inactive)	> 100 µM (inactive)	> 100 µM (inactive)	9.46 µM (inactive)	> 100 µM (inactive)	> 100 µM (inactive)	> 100	> 100 µM (inactive)	> 100 µM (inactive)	> 100 µM (inactive)	> 100 µM (inactive)	> 100 µM (inactive)	92 µM (inactive)	> 100 µM (inactive)	> 100 µM (inactive)	> 100 µM (inactive)		
O=c1[nH]nc(NCCc2ccccc2)c2nnn(Cc3ccccc3)c12		> 100 µM (inactive)	> 100 µM (inactive)	> 100 µM (inactive)	> 100 µM (inactive)	> 100 µM (inactive)	> 100 µM (inactive)	> 100	> 100 µM (inactive)		> 100 µM (inactive)	> 100 µM (inactive)	> 100 µM (inactive)	> 100 µM (inactive)	> 100 µM (inactive)	> 100 µM (inactive)	> 100 µM (inactive)		
OCCN(/N=C\c1ccc2ccccc2c1)C1=NCCN1	47.9 µM (inactive)	38.2 µM (inactive)	11.4 µM (inactive)	26.7 µM (inactive)	25.6 µM (inactive)		31.6 µM (inactive)	30.5	29.1 µM (inactive)	12.9 µM (inactive)	36.1 µM (inactive)	24.9 µM (inactive)	27.5 µM (inactive)	28.8 µM (inactive)	18.2 µM (inactive)	48.4 µM (inactive)	37.7 µM (inactive)	21 µM (inactive)	
Cc1cc(C2(O)C=C(C(C)(C)C)C(=O)C(C(C)(C)C)=C2)c(C)cc1C1(O)C=C(C(C)(C)C)C(=O)C(C(C)(C)C)=C1	> 100 µM (inactive)	> 100 µM (inactive)		> 100 µM (inactive)	17.2 µM (inactive)	> 100 µM (inactive)	> 100 µM (inactive)	> 100	> 100 µM (inactive)	> 100 µM (inactive)	> 100 µM (inactive)	> 100 µM (inactive)	> 100 µM (inactive)	> 100 µM (inactive)	> 100 µM (inactive)	> 100 µM (inactive)	> 100 µM (inactive)	> 100 µM (inactive)	> 100 µM (inactive)
CC(=O)O[C@H]1/C(=C/c2ccc(N(C)C)cc2)C[C@H]2[C@@H]3CC=C4C[C@@H](N5CCCC5)CC[C@]4(C)[C@H]3CC[C@]12C	> 100 µM (inactive)		> 100 µM (inactive)	> 100 µM (inactive)	40 µM (inactive)	> 100 µM (inactive)	> 100 µM (inactive)	> 100	> 100 µM (inactive)	> 100 µM (inactive)	> 100 µM (inactive)	> 100 µM (inactive)	63.2 µM (inactive)	> 100 µM (inactive)	> 100 µM (inactive)	> 100 µM (inactive)	> 100 µM (inactive)	> 100 µM (inactive)	
Brc1ccc(C2C3CSc4ccccc4C3=NN2c2ccccc2)cc1 (stereo unspecified)	82.8 µM (inactive)	44.5 µM (inactive)	> 100 µM (inactive)	> 100 µM (inactive)	44.2 µM (inactive)	4.07 µM (inactive)	> 100 µM (inactive)	39.6		> 100 µM (inactive)	14.5 µM (inactive)	54.2 µM (inactive)	78.2 µM (inactive)	27.3 µM (inactive)	43 µM (inactive)	62.1 µM (inactive)	> 100 µM (inactive)	59 µM (inactive)	
